Results as given in patent US6348468B1, “Pyridazine compounds and compositions containing the same” (Kowa Co., Ltd., priority 1997, dated 2002).

How the values were obtained:
[1] = test system: Interleukin-1β (IL-1β) Production; experiment: Inhibitory activity against interleukin-1β production (LPS-stimulated HL-60 cells, ELISA); type: cell-based; settings: Homo sapiens, 72 h, lipopolysaccharide 10 μg/ml, culturing for 3 days
Protocol: HL-60 cells were cultured for 4 days until confluence on RPMI 1640 medium with 10% fetal bovine serum (FBS) added thereto. The HL-60 cells were centrifuged. The supernatant was discarded, and the cells were then suspended at 1×10^6 cells/ml on RPMI 1640 medium with 3% FBS, and lipopolysaccharide was added to give a final concentration of 10 μg/ml. The culture was inoculated at 1 ml/well to a 24-well plate. A test sample was added at 1 μl/well, followed by culturing for 3 days. Three days later, the amount of interleukin-1β in each of the cultures was measured by ELISA. Its IC50 value was determined by a comparison in yield with a control to which no test sample was added.

Row | SMILES | IC50 [1] [nM] | melting point [°C]
1 | COc1ccc(Cn2nc(-c3ccc(OC)cc3)c(-c3ccc(OC)cc3)cc2=O)cc1 [Example 14, 5,6-bis(4-methoxyphenyl)-2-(4-methoxybenzyl)-2H-pyridazin-3-one] | 94 | 
2 | COc1ccc(-c2cc(=O)n(Cc3ccc(F)cc3F)nc2-c2ccc(OC)cc2)cc1 [Example 27, 5,6-bis(4-methoxyphenyl)-2-(2,4-difluorobenzyl)-2H-pyridazin-3-one] | 180 | 
3 | COc1ccc(-c2cc(=O)n(CC3CC3)nc2-c2ccc(OC)cc2)cc1 [Example 169, 5,6-bis(4-methoxyphenyl)-2-cyclopropylmethyl-2H-pyridazin-3-one] | 1800 | 
4 | CSc1ccc(-c2nn(Cc3cccnc3)c(=O)cc2-c2ccc(Cl)cc2)cc1 [Example 55, 5-(4-chlorophenyl)-6-[4-(methylthio)phenyl]-2-(3-pyridylmethyl)-2H-pyridazin-3-one] | 250 | 
5 | COc1ccc(-c2cc(=O)n(CC=Cc3ccc(Cl)cc3)nc2-c2ccc(OC)cc2)cc1 [Example 12, 5,6-bis(4-methoxyphenyl)-2-(4-chlorocinnamyl)-2H-pyridazin-3-one] | 100 | 
6 | COc1ccc(-c2nn(Cc3ccc(Cl)cc3)c(=S)cc2-c2ccncc2)cc1 [Example 142, 2-(4-chlorobenzyl)-6-(4-methoxyphenyl)-5-(4-pyridyl)-2H-pyridazine-3-thione] | 180 | 
7 | COc1ccc(-c2cc(=S)n(CC3CC3)nc2-c2ccc(OC)cc2)cc1 [Example 170, 5,6-bis(4-methoxyphenyl)-2-cyclopropylmethyl-2H-pyridazine-3-thione] | 1190 | 
8 | COc1ccc(CCCn2nc(-c3ccc(OC)cc3)c(-c3ccc(OC)cc3)cc2=O)cc1 [Example 23, 5,6-bis(4-methoxyphenyl)-2-[3-(4-methoxyphenyl)propyl]-2H-pyridazin-3-one] | 360 | 
9 | COc1ccc(-c2cc(=O)n(CCCc3ccc(C)cc3)nc2-c2ccc(OC)cc2)cc1 [Example 25, 5,6-bis(4-methoxyphenyl)-2-[3-(4-methylphenyl)propyl]-2H-pyridazin-3-one] | 180 | 
10 | COc1ccc(-c2cc(=O)n(CC3CCCC3)nc2-c2ccc(OC)cc2)cc1 [Example 172, 5,6-bis(4-methoxyphenyl)-2-cyclopentylmethyl-2H-pyridazin-3-one] | 110 | 
11 | COc1ccc(-c2cc(=O)n(C(C)C)nc2-c2ccc(OC)cc2)cc1 [Example 165, 5,6-bis(4-methoxyphenyl)-2-isopropyl-2H-pyridazin-3-one] | 1320 | 
12 | COc1ccc(-c2cc(=O)n(Cc3ccc(Cl)c(Cl)c3)nc2-c2ccc(OC)cc2)cc1 [Example 35, 5,6-bis(4-methoxyphenyl)-2-(3,4-dichlorobenzyl)-2H-pyridazin-3-one] | 210 | 
13 | COc1ccc(-c2cc(=O)n(Cc3ccc(F)cc3)nc2-c2ccc(OC)cc2)cc1 [Example 26, 5,6-bis(4-methoxyphenyl)-2-(4-fluorobenzyl)-2H-pyridazin-3-one] | 150 | 
14 | COc1ccc(-c2cc(=O)n(CC=Cc3ccc(C)cc3)nc2-c2ccc(OC)cc2)cc1 [Example 24, 5,6-bis(4-methoxyphenyl)-2-(4-methylcinnamyl)-2H-pyridazin-3-one] | 200 | 
15 | COc1ccc(-c2cc(=O)n(Cc3ccc(OC)c(F)c3)nc2-c2ccc(OC)cc2)cc1 [Example 28, 5,6-bis(4-methoxyphenyl)-2-(3-fluoro-4-methoxybenzyl)-2H-pyridazin-3-one] | 290 | 
16 | COc1ccc(-c2cc(=O)n(C3CC3)nc2-c2ccc(OC)cc2)cc1 [Example 168, 5,6-bis(4-methoxyphenyl)-2-cyclopropyl-2H-pyridazin-3-one] | 7980 | 
17 | COc1ccc(-c2cc(=O)n(CC=Cc3ccc(F)cc3F)nc2-c2ccc(OC)cc2)cc1 [Example 31, 5,6-bis(4-methoxyphenyl)-2-(2,4-difluorocinnamyl)-2H-pyridazin-3-one] | 95 | 
18 | COc1ccc(-c2nn(Cc3ccc(Cl)cc3)c(=O)cc2-c2ccncc2)cc1 [Example 78, 2-(4-chlorobenzyl)-6-(4-methoxyphenyl)-5-(4-pyridyl)-2H-pyridazin-3-one] | 390 | 
19 | COc1ccc(-c2cc(=O)n(Cc3ccccc3)nc2-c2ccc(OC)cc2)cc1 [Example 13, 5,6-bis(4-methoxyphenyl)-2-benzyl-2H-pyridazin-3-one] | 260 | 
20 | COc1ccc(-c2cc(=O)[nH]nc2-c2ccc(OC)cc2)cc1 [Comp. Comp'd 4, reference compound] | 31600 | 
21 | COc1ccc(-c2cc(=S)n(Cc3ccc(F)cc3F)nc2-c2ccc(OC)cc2)cc1 [Example 126, 5,6-bis(4-methoxyphenyl)-2-(2,4-difluorobenzyl)-2H-pyridazine-3-thione] | 150 | 

Row | SMILES | IC50 [1] [nM] | melting point [°C]
22 | COc1ccc(-c2cc(=O)n(CCCc3ccccc3)nc2-c2ccc(OC)cc2)cc1 [Example 19, 5,6-bis(4-methoxyphenyl)-2-(3-phenylpropyl)-2H-pyridazin-3-one] | 79 | 
23 | COc1ccc(Cn2nc(-c3ccc(SC)cc3)c(-c3ccc(F)cc3)cc2=O)cc1 [Example 62, 5-(4-fluorophenyl)-6-[4-(methylthio)phenyl]-2-(4-methoxybenzyl)-2H-pyridazin-3-one] |  | 165.3 to 165.7
24 | COc1ccc(-c2cc(=O)n(Cc3ccc(C(=O)O)cc3)nc2-c2ccc(OC)cc2)cc1 [Example 112, 5,6-bis(4-methoxyphenyl)-2-(4-carboxybenzyl)-2H-pyridazin-3-one] |  | 241 to 242
25 | C[S+]([O-])c1ccc(-c2nn(Cc3ccc(Cl)cc3Cl)c(=O)cc2-c2ccc(Cl)cc2)cc1 (centres unmarked) [Example 92, 5-(4-chlorophenyl)-2-(2,4-dichlorobenzyl)-6-[4-(methylsulfinyl)phenyl]-2H-pyridazin-3-one] |  | 236.5 to 237.3
26 | COc1ccc(-c2nn(CC=Cc3ccc(Cl)cc3)c(=O)cc2-c2ccc(OC)c(F)c2)cc1 [Example 152, 2-(4-chlorocinnamyl)-5-(3-fluoro-4-methoxyphenyl)-6-(4-methoxyphenyl)-2H-pyridazin-3-one] |  | 109.2 to 111
27 | C[S+]([O-])c1ccc(-c2nn(CC3CC3)c(=O)cc2-c2ccc(Cl)cc2)cc1 (centres unmarked) [Example 86, 5-(4-chlorophenyl)-2-cyclopropylmethyl-6-[4-(methylsulfinyl)phenyl]-2H-pyridazin-3-one] |  | 152.2 to 152.3
28 | CCn1nc(-c2ccc(OC)cc2)c(-c2ccc(OC)c(F)c2)cc1=O [Example 153, 2-ethyl-5-(3-fluoro-4-methoxyphenyl)-6-(4-methoxyphenyl)-2H-pyridazin-3-one] |  | 161.7 to 162.2
29 | COc1ccc(-c2cc(=O)n(CC(C)C)nc2-c2ccc(OC)c(F)c2)cc1F [Example 161, 5,6-bis(3-fluoro-4-methoxyphenyl)-2-isobutyl-2H-pyridazin-3-one] |  | 154 to 154.5
30 | CSc1ccc(-c2nn(Cc3ccc(F)cc3F)c(=S)cc2-c2ccc(Cl)cc2)cc1 [Example 133, 5-(4-chlorophenyl)-2-(2,4-difluorobenzyl)-6-[4-(methylthio)phenyl]-2H-pyridazine-3-thione] |  | 176.5 to 176.6
31 | COc1ccc(-c2nn(CC(C)C)c(=O)cc2-c2ccc(OC)c(F)c2)cc1 [Example 154, 5-(3-fluoro-4-methoxyphenyl)-2-isobutyl-6-(4-methoxyphenyl)-2H-pyridazin-3-one] |  | 124.6 to 125
32 | C[S+]([O-])c1ccc(-c2nn(CC3CC3)c(=O)cc2-c2ccc(F)cc2)cc1 (centres unmarked) [Example 87, 2-cyclopropylmethyl-5-(4-fluorophenyl)-6-[4-(methylsulfinyl)phenyl]-2H-pyridazin-3-one] |  | 133.3 to 133.5
33 | CS(=O)(=O)c1ccc(-c2nn(CC3CC3)c(=O)cc2-c2ccc(Cl)cc2)cc1 [Example 99, 5-(4-chlorophenyl)-2-cyclopropylmethyl-6-[4-(methylsulfonyl)phenyl]-2H-pyridazin-3-one] |  | 139.7 to 139.8
34 | COc1ccc(-c2cc(=O)n(CCCOc3ccccc3)nc2-c2ccc(OC)cc2)cc1 [Example 20, 5,6-bis(4-methoxyphenyl)-2-[3-(phenoxy)propyl]-2H-pyridazin-3-one] |  | 110 to 111
35 | COc1ccc(-c2cc(=O)[nH]nc2-c2ccc(OC)c(F)c2)cc1F [Example 157, 5,6-bis(3-fluoro-4-methoxyphenyl)-2H-pyridazin-3-one] |  | 204.8 to 205.7
36 | COc1ccc(-c2nn(CC3CC3)c(=O)cc2-c2ccc(OC)c(F)c2)cc1 [Example 155, 2-cyclopropylmethyl-5-(3-fluoro-4-methoxyphenyl)-6-(4-methoxyphenyl)-2H-pyridazin-3-one] |  | 135.2 to 135.7
37 | CSc1ccc(-c2n[nH]c(=O)cc2-c2ccc(F)cc2)cc1 [Example 9, 5-(4-fluorophenyl)-6-[4-(methylthio)phenyl]-2H-pyridazin-3-one] |  | 197.4 to 198.2
38 | CS(=O)(=O)c1ccc(-c2nn(Cc3ccccc3)c(=O)cc2-c2ccccc2)cc1 [Example 109, 2-benzyl-6-[4-(methylsulfonyl)phenyl]-5-phenyl-2H-pyridazin-3-one] |  | 211 to 212
39 | COc1ccc(-c2cc(=O)n(CC=Cc3ccc(Cl)cc3)nc2-c2ccc(OC)c(F)c2)cc1F [Example 159, 5,6-bis(3-fluoro-4-methoxyphenyl)-2-(4-chlorocinnamyl)-2H-pyridazin-3-one] |  | 72.5 to 74.9
40 | COc1ccc(-c2cc(=O)n(CC3CC3)nc2-c2ccc(OC)c(F)c2)cc1 [Example 148, 2-cyclopropylmethyl-6-(3-fluoro-4-methoxyphenyl)-5-(4-methoxyphenyl)-2H-pyridazin-3-one] |  | 132.2 to 132.6
41 | COc1ccc(C2=NNC(=O)CC2c2ccc(OC)c(F)c2)cc1F (centres unmarked) [Example 156, 5,6-bis(3-fluoro-4-methoxyphenyl)-4,5-dihydro-2H-pyridazin-3-one] |  | 195.7 to 197.7
